Laboratory results from paper PMC9504178 (Viruses, 2022).

Key:
[1] = test system: NL09 or NL11; format: cell-based, influenza A virus
[2] = test system: NL09 and NL11 strains; format: cell-based, influenza A virus

CNC(=O)c1cc(Oc2ccc(NC(=O)Nc3ccc(Cl)c(C(F)(F)F)c3)c(F)c2)ccn1 [RG, regorafenib]
reduction of viral titers in hPCLSs [1]: more than 1000 fold | viral reduction in hPCLSs [1]: ~ 4 log10 | viral reduction in A549 cells [2]: ~ 2 log10

Cn1cc(-c2cc3c(N4CCN(c5ncc([C@@](C)(N)c6ccc(F)cc6)cn5)CC4)ncnn3c2)cn1 [AV, avapritinib]
reduction of viral titers in hPCLSs [1]: ~ 10 fold

CN(C)C/C=C/C(=O)Nc1cc2c(Nc3ccc(F)c(Cl)c3)ncnc2cc1O[C@H]1CCOC1 [AF, afatinib]
reduction of viral titers in hPCLSs [1]: more than 1000 fold
